Measurements as given in patent publication US4472582A, “3,5-Disubstituted-4'-(9-acridinylamino)-methane-sulfon-m-anisidide compounds having antitumor properties” (Development Finance Corporation of New Zealand, priority 1979, dated 1984).

Each molecule was assayed on L1210 leukemia (ip) (assay: Antileukemic screen, L1210 tumour ip, drug ip qd 1-5). Conditions: L1210-ip, qd 1-5; Table IV.
Assay type: in vivo, mice (C3H/DBA2 F1 hybrids)
Source text: In initial screening a standard drug administration schedule has been employed (ip, qd 1-5) and mice (C3 H/DBA2 F1 hybrids) bred in the laboratory, receive a standard tumor inoculum of 10^5 L1210 cells ip on day 0. After range finding experiments, an LD10 dose has then been derived employing doses separated by 0.05 log.dose units, an acceptable soluble drug formulation (B. F. Cain, R. N. Seelye and G. J. Atwell, J. Med. Chem., 17, 922-930 (1974)) and groups of six tumored mice at each dose level. Deaths occuring before day 8 have been taken as resulting from drug toxicity. From the linear regression relating percent probit-mortality and the logarithms of the corresponding doses, an LD10 value has been derived. Profiles of antileukemic activity have been obtained employing doses separated by 0.09 log.dose intervals. Significant percentage increases in life span of leukemic animals, obtained at and below the LD10 dose, have been linearly correlated with the logarithms of the corresponding doses. The increase in life span (ILS) specified by the life extension-log.dose regression line at the measured LD10 provides a representative measure of antileukemic effectiveness at a standard host load in toxicity (W. A. Denny and B. F. Cain, J. Med. Chem., 21, 430-437 (1978)). For congener selection ILS has been employed as a measure of factor (1) above and LD10 for factor (2). Desirable drug pharmacokinetic properties (factor (3)) have been screened for by employing standard ip drug administration and implanting tumor more remotely; either subcutaneously (sc) or intracerabrally (ic) (B. F. Cain and G. J. Atwell Europ J. Cancer, 10, 539 549 (1974), B. F. Cain and G. J. Atwell, J. Med. Chem., 19 1409-1416 (1976)).
ILS and LD10=as defined above.
D40=the drug dose necessary to provide 40% ILS in standard L1210 assays.

SMILES	ILS Observed
COc1cc(NS(C)(=O)=O)ccc1Nc1c2ccccc2nc2cc(Br)c(N)cc12 [Compound C1]	90%
COc1cc(NS(C)(=O)=O)ccc1Nc1c2ccccc2nc2cc(C(F)(F)F)c(N)cc12 [Compound C2]	108%
COc1cc(NS(C)(=O)=O)ccc1Nc1c2ccccc2nc2c(C)c([N+](=O)[O-])ccc12 [Compound C3]	54%
COc1cc(NS(C)(=O)=O)ccc1Nc1c2ccccc2nc2c(C)c(C)ccc12 [Compound C4]	79%
COc1cc(NS(C)(=O)=O)ccc1Nc1c2ccc([N+](=O)[O-])cc2nc2c(C)cccc12 [Compound C5]	107%
COc1cc(NS(C)(=O)=O)ccc1Nc1c2ccc([N+](=O)[O-])cc2nc2c(OC)cccc12 [Compound C6]	66%
COc1cc(NS(C)(=O)=O)ccc1Nc1c2ccc(N)cc2nc2c(C)cccc12 [Compound C7]	125%
COc1cc(NS(C)(=O)=O)ccc1Nc1c2ccc(I)cc2nc2c(C)cccc12 [Compound C8]	86%
COc1cc(NS(C)(=O)=O)ccc1Nc1c2ccc(I)cc2nc2c(OC)cccc12 [Compound C9]	63%
CNc1ccc2c(Nc3ccc(NS(C)(=O)=O)cc3OC)c3cccc(C)c3nc2c1 [Compound C10]	68%
COc1cc(NS(C)(=O)=O)ccc1Nc1c2ccc(Cl)cc2nc2c(C)cccc12 [Compound C11]	57%
COc1cc(NS(C)(=O)=O)ccc1Nc1c2ccc(Cl)cc2nc2c(OC)cccc12 [Compound C12]	82%
COc1cc(NS(C)(=O)=O)ccc1Nc1c2ccc(C)cc2nc2c(C)cccc12 [Compound C13]	97%
COc1cc(NS(C)(=O)=O)ccc1Nc1c2ccc(C)cc2nc2c(C(N)=O)cccc12 [Compound C14]	100%
COc1cc(NS(C)(=O)=O)ccc1Nc1c2ccc(Cl)cc2nc2c(C(N)=O)cccc12 [Compound C15]	90%
COc1cc(NS(C)(=O)=O)ccc1Nc1c2ccc([N+](=O)[O-])cc2nc2c(C(N)=O)cccc12 [Compound C16]	100%

SMILES	ILS Observed
COc1cc(NS(C)(=O)=O)ccc1Nc1c2ccc(C(N)=O)cc2nc2c(C)cccc12 [Compound C17]	150%
COc1cc(NS(C)(=O)=O)ccc1Nc1c2ccc(C(N)=O)cc2nc2c(OC)cccc12 [Compound C18]	70%
COc1cc(NS(C)(=O)=O)ccc1Nc1c2ccc(Cl)cc2nc2cc(Cl)ccc12 [Compound C19]	52%
COc1cc(NS(C)(=O)=O)ccc1Nc1c2ccc(Cl)cc2nc2cc(C(F)(F)F)ccc12 [Compound C20]	5%
COc1cc(NS(C)(=O)=O)ccc1Nc1c2ccc(Br)cc2nc2cc(Br)ccc12 [Compound C21]	82%
COc1cc(NS(C)(=O)=O)ccc1Nc1c2ccc(C)cc2nc2cc([N+](=O)[O-])ccc12 [Compound C22]	91%
COc1cc(NS(C)(=O)=O)ccc1Nc1c2ccc([N+](=O)[O-])cc2nc2cc([N+](=O)[O-])ccc12 [Compound C23]	58%
COc1cc(NS(C)(=O)=O)ccc1Nc1c2cccc(C)c2nc2c(C)cccc12 [Compound C24]	87%
COc1cc(NS(C)(=O)=O)ccc1Nc1c2ccccc2nc2c(C)c(C)c(N)cc12 [Compound C25]	61%
COc1cc(NS(C)(=O)=O)ccc1Nc1c2cc(N)c(Br)cc2nc2c(C)cccc12 [Compound C26]	83%
COc1cc(NS(C)(=O)=O)ccc1Nc1c2cccc(C)c2nc2c(C)c([N+](=O)[O-])ccc12 [Compound C27]	28%
COc1cc(NS(C)(=O)=O)ccc1Nc1c2cccc(C)c2nc2c(C)c(C)ccc12 [Compound C28]	76%
COc1cc(NS(C)(=O)=O)ccc1Nc1c2ccc(C)cc2nc2c(C)c(C)ccc12 [Compound C29]	58%
COc1cc(NS(C)(=O)=O)ccc1Nc1c2ccc([N+](=O)[O-])cc2nc2c(C)c(C)ccc12 [Compound C30]	92%
COc1cc(NS(C)(=O)=O)ccc1Nc1c2ccc(N)cc2nc2c(C)c(C)ccc12 [Compound C31]	79%
CNc1ccc2c(Nc3ccc(NS(C)(=O)=O)cc3OC)c3ccc(C)c(C)c3nc2c1 [Compound C32]	64%

Same assay, conditions: in words

SMILES	Observed ILS compared with predicted ILS
COc1cc(NS(C)(=O)=O)ccc1Nc1c2ccccc2nc2cc(C(F)(F)F)c(N)cc12 [Compound C2]	observed ILS values greater than their predicted ILS values
COc1cc(NS(C)(=O)=O)ccc1Nc1c2ccc([N+](=O)[O-])cc2nc2c(C)cccc12 [Compound C5]	observed ILS values greater than their predicted ILS values
COc1cc(NS(C)(=O)=O)ccc1Nc1c2ccc(N)cc2nc2c(C)cccc12 [Compound C7]	observed ILS values greater than their predicted ILS values
COc1cc(NS(C)(=O)=O)ccc1Nc1c2ccc([N+](=O)[O-])cc2nc2c(C(N)=O)cccc12 [Compound C16]	observed ILS values greater than their predicted ILS values
COc1cc(NS(C)(=O)=O)ccc1Nc1c2ccc(C(N)=O)cc2nc2c(C)cccc12 [Compound C17]	observed ILS values greater than their predicted ILS values
COc1cc(NS(C)(=O)=O)ccc1Nc1c2ccc(C)cc2nc2cc([N+](=O)[O-])ccc12 [Compound C22]	observed ILS values greater than their predicted ILS values

Same assay, conditions: monosubstituted m-AMSA; Table V

SMILES	ILS Observed
COc1cc(NS(C)(=O)=O)ccc1Nc1c2ccccc2nc2ccc(N)cc12 [Compound M1]	106%
COc1cc(NS(C)(=O)=O)ccc1Nc1c2ccccc2nc2cc(C)ccc12 [Compound M2]	88%
COc1cc(NS(C)(=O)=O)ccc1Nc1c2ccccc2nc2cc(C(N)=O)ccc12 [Compound M3]	150%
CNC(=O)c1ccc2c(Nc3ccc(NS(C)(=O)=O)cc3OC)c3ccccc3nc2c1 [Compound M4]	92%
COc1cc(NS(C)(=O)=O)ccc1Nc1c2ccccc2nc2cc(Cl)ccc12 [Compound M5]	72%
COc1cc(NS(C)(=O)=O)ccc1Nc1c2ccccc2nc2cc(Br)ccc12 [Compound M6]	119%
COc1cc(NS(C)(=O)=O)ccc1Nc1c2ccccc2nc2cc(I)ccc12 [Compound M7]	98%
COc1cc(NS(C)(=O)=O)ccc1Nc1c2ccccc2nc2cc(C(F)(F)F)ccc12 [Compound M8]	63%
COc1cc(NS(C)(=O)=O)ccc1Nc1c2ccccc2nc2cc(N)ccc12 [Compound M9]	82%
CNc1ccc2c(Nc3ccc(NS(C)(=O)=O)cc3OC)c3ccccc3nc2c1 [Compound M10]	94%
COc1cc(NS(C)(=O)=O)ccc1Nc1c2ccccc2nc2cc([N+](=O)[O-])ccc12 [Compound M11]	84%
COc1cc(NS(C)(=O)=O)ccc1Nc1c2ccccc2nc2c(C)cccc12 [Compound M12]	111%
COc1cc(NS(C)(=O)=O)ccc1Nc1c2ccccc2nc2c(C(N)=O)cccc12 [Compound M13]	112%
CNC(=O)c1cccc2c(Nc3ccc(NS(C)(=O)=O)cc3OC)c3ccccc3nc12 [Compound M14]	135%
COc1cc(NS(C)(=O)=O)ccc1Nc1c2ccccc2nc2c(C(=O)NCC(N)=O)cccc12 [Compound M15]	98%
COc1cc(NS(C)(=O)=O)ccc1Nc1c2ccccc2nc2c(OC)cccc12 [Compound M16]	110%
